The results in this text go back to paper PMC8198038, “In Vitro Evaluation of Antiproliferative Properties of Novel Organotin(IV) Carboxylate Compounds with Propanoic Acid Derivatives on a Panel of Human Cancer Cell Lines” (Molecules, 2021).

Each structure is given as a SMILES string.

Data set [1] deals with MCF-7 cells. Briefly: Tin and platinum uptake by ICP-MS. It counts as cell-based, human. The conditions noted are these: 24 h, at IC50 (CV assay): cisplatin 15.83 µM, Ph3SnL1 0.218 µM. How it is done:
The cellular uptake features of metal-based cytotoxic drugs strongly impact the underlying anticancer performance. Intracellular tin and platinum uptake in MCF-7 cells has been investigated with the aid of inductively coupled plasma mass spectrometry (ICP-MS) analysis. The treatment of cells with Ph3SnL1 and cisplatin for 24 h in concentrations corresponding to their IC50 values, as obtained by the CV assay, was performed.
The tin and platinum uptake analysis was performed on MCF-7 cells with the aid of inductively coupled plasma mass spectrometry (ICP-MS). The cells were seeded in T25 flasks and allowed to grow. After 24 h, the exponentially growing cells were treated with 10 mL of Ph3SnL1 and cisplatin in concentrations corresponding to their IC50 values for 24 h, and thereafter trypsinised and collected by centrifugation at 1200 rpm for 8 min. Using 5 mL of ice-cold PBS the cells were washed and the metal uptake concentration in prepared samples was determined according to the previously described procedure. A Thermo Scientific iCAP Qc ICP-MS (Thermo Scientific, Bremen, Germany) instrument using the supplied autotune protocols and operational software Qtegra was employed for metal uptake determination. The measurements were performed on isotopes ^119Sn, ^120Sn, ^195Pt, and ^198Pt and the concentrations of metals were expressed as ppb (µg/L).

Data set [2] deals with HepG2 (hepatocellular cancer) cells. Briefly: MTT assay, HepG2 cells. It counts as cell-based, human. The conditions noted are these: MTT assay, 48 h incubation; read-out: IC50 (mean ± SD), HepG2, MTT. How it is done: (§1) The cell proliferations of ligand precursors and organotin(IV) compounds were evaluated with the aid of MTT (3-(4,5-dimethylthiazol-2-yl)-2,5-12 diphenyltetrazolium bromide) and CV (crystal violet) assays toward prostate (PC-3), colon (HT-29), breast (MCF-7) and hepatic (HepG2) cancer cell lines, and normal mouse embryonic fibroblast cells (NIH 3T3). The cells were cultivated in T75 flasks containing 10 mL of complete medium and kept at 37 °C and 5% CO2 […]. The nutrient medium was RPMI-1640 (PAA Laboratories) supplemented with 10% foetal bovine serum, L-glutamine, and penicillin/streptomycin (Sigma). Afterward, 5.000 cells of PC-3 and MCF-7 and 1.500 cells of HT-29 and HepG2 were transferred into 96 well-plates and used for MTT and CV assays. For microscopy investigations as well as FACS measurements (except for ROS/RNS measurements), MCF-7 cells were seeded overnight in 6-well plates (150,000 cells/well) in […] of complete medium. […] In all assays, control cells were untreated MCF-7 cells incubated for the same time period as treated cells and treated with appropriate reagents in various assays. BD FACS Aria III was used for flow cytometry experiments and results were analysed using BD FACSDiva software (BD Biosciences, Heidelberg, Germany) and Cyflogic (V 1.2.1, CyFlo Ltd., Turku, Finland). A fluorescence microscope Invitrogen EVOS FL 2 Auto 2 Cell Imaging System was used for visualization of the cells as well as for detection of fluorescence in the cells.
(§2) Ligands HL1‒HL3, organotin(IV) compounds, and cisplatin were investigated in 9 different concentrations (100, 50, 10, 5, 1, 0.5, 0.1, 0.05, 0.01 μM). Using the complete medium, each stock solution of the test compounds (20 mM in DMSO) was diluted to obtain the working solution. The final concentration of DMSO never overstepped 0.5%, which is non-toxic to the cells. Three technical replicates were performed for each concentration. The treated cells were incubated for 48 h at 37 °C under 5% CO2 and the viability of the cells was determined using MTT and CV assays according to the literature procedure. The IC50 values, defined as 50% inhibitory concentration, were calculated with a four-parameter logistic function and presented in a mean. All experiments were performed in triplicate.

For data set [3], the system named is HT-29 (human colorectal adenocarcinoma) cells. Briefly: CV (crystal violet) assay, HT-29 cells. It counts as cell-based. The conditions noted are these: CV assay, 48 h incubation; read-out: IC50 (mean ± SD), HT-29, CV. How it is done:
as §1, §2

The test system of data set [4] is MCF-7 cells. Briefly: Autophagy analysis (AO, flow cytometry). The data set is classed as cell-based, human. Conditions: 48 h, IC50 concentration. How it is done: Thereafter, the medium was collected into 15 mL Falcon tubes, while the cells were washed with 1 mL of PBS. The cells were detached using […] of trypsin. The deactivation of trypsination was performed with the formerly collected medium, while for the untreated cells, 1 mL of complete medium was added, and the cells were collected by the pipette tip harvesting technique from each well into a new Falcon tube, which then was centrifuged for 3 min at 1000 rpm. The supernatant was discarded, and the cells were washed with 1 mL of PBS, centrifuged for 3 min at 1000 rpm and then the supernatant was discarded. Afterwards, 500 μL of the acridine orange (AO) working solution was used to stain the cells which then were incubated for 30 min at 37 °C under 5% CO2. The deactivation of the staining process was performed by adding 1 mL of PBS, and after centrifugation for 3 min at 1000 rpm, the supernatant was discarded. The cells were resuspended in 1 mL of PBS and analysed by flow cytometry.
Background: Flow cytometry measures light scatter and fluorescence of single cells or particles in a stream.

The subject of data set [5] is MCF-7 (breast cancer) cells. Briefly: CV (crystal violet) assay, MCF-7 cells. The data set is classed as cell-based, human. Conditions: for IC50: CV assay, 48 h incubation, read-out: IC50 (mean ± SD), MCF-7, CV. How it is done:
as §1, §2

Data set [6] has as its system NIH3T3 (normal mouse embryonic fibroblast) cells. Briefly: CV (crystal violet) assay, NIH3T3 cells. It counts as cell-based. Conditions: CV assay, 48 h incubation, normal cells; read-out: IC50 (mean ± SD), NIH3T3, CV. How it is done: as §1, §2
In data set [7] the test system is MCF-7 cells. Briefly: Morphological analysis (AO and DAPI staining). Conditions: 24 h, IC50 or 2 × IC50. The data set is classed as cell-based, human. How it is done:
The morphological changes of MCF-7 cell death induced by Ph3SnL1 and cisplatin were studied by AO (acridine orange) and DAPI (4′,6-diamidino-2-phenylindole) staining, and examined under a fluorescence microscope. Acridine orange can cross the cell membrane and viable and early apoptotic cells can be detected. Chromatin condensation, seen as dense green areas, or membrane blebbing, both appearing in apoptosis, is easily proven by AO staining. After 24 h of treatment (IC50 and 2 × IC50 concentrations) the cells were stained with acridine orange (3 μg/mL AO in PBS), and observed with a fluorescence microscope (Fluorescence microscope-Invitrogen EVOS FL 2 Auto 2 Cell Imaging System). On the other hand, for the DAPI assay 0.5 mL of Triton (0.1% in PBS) was added to the treated cells after the fixing the cells with 0.5 mL of 4% paraformaldehyde (PFA) for 8 min. Thereafter, 0.5 mL of DAPI solution was used to stain the cells for 5 min in the dark. The morphological characteristics were visualized under a fluorescence microscope (Fluorescence microscope-Invitrogen EVOS FL 2 Auto 2 Cell Imaging System).

For data set [8], the system named is HT-29 (human colorectal adenocarcinoma) cells. Briefly: MTT assay, HT-29 cells. It counts as cell-based. Conditions: MTT assay, 48 h incubation; read-out: IC50 (mean ± SD), HT-29, MTT. How it is done: as §1, §2
A general note: Tetrazolium assays rely on reduction of a dye to a coloured formazan, in cell work by metabolically active cells.

Consider `O=C(CCc1nc(-c2ccccc2)c(-c2ccccc2)o1)[O][Sn]([c]1ccccc1)([c]1ccccc1)[c]1ccccc1` [Ph3SnL1, (3-(4,5-Diphenyloxazol-2-yl)propanoato)triphenyltin(IV)], for which, in data set [1], the “intracellular metal (tin / platinum) uptake” value is “two-fold lower concentration of tin in MCF-7 cells in comparison to platinum”. For the same compound, the IC50 (usually the midpoint of a concentration-inhibition curve) in data set [2] was 0.146 ± 0.028 µM; in data set [3] it was 0.465 ± 0.046 µM; in data set [5] it was 0.218 ± 0.025 µM; in data set [6], 2.66 ± 0.52 µM; in data set [8] it was 0.237 ± 0.012 µM. Further, the “autophagy (AO)” value in data set [4] is recorded as “autophagy process is not triggered”. In addition, the “times more powerful antiproliferative activity than cisplatin in MCF-7 cells” value in data set [5] (CV assay IC50 values) is “up to 70 times”. Besides, in data set [7], the “morphological changes (AO and DAPI staining)” value is recorded as “notable morphological changes”.
As for `N.N.[Cl][Pt][Cl]` [cisplatin, reference compound], the “intracellular metal (tin / platinum) uptake” value in data set [1] was “approximately twofold higher platinum concentration in MCF-7 cells compared to tin”. The IC50 in data set [2] worked out at 3.47 ± 0.46 µM; in data set [3] it was 16 ± 0.95 µM; in data set [5], 15.8 ± 0.55 µM; in data set [6], 14.2 ± 1.95 µM; in data set [8], 14.2 ± 0.73 µM. Besides, the “autophagy (AO)” value in data set [4] is listed as “induces an autophagic response”.
